Data: patent US8329904B2, “Azacyclic derivatives” (Hoffmann-La Roche Inc., priority 2009, dated 2012)

target: T1, human HSL (Homo sapiens, UniProt Q05469); experiment: Human Hormone-Sensitive Lipase (HSL) Enzyme Inhibition Assay; assay type: biochemical; conditions: colorimetric assay, 2,3-dimercapto-1-propanol tributyrate (DMPT) substrate, 37° C. for 20 minutes, absorbance at 405 nm; read-out: HSL hum IC50
T1 construct: overlapping PCR to generate a full length human HSL ORF with a 3′-His6 tag; His6 (C); made in house; host or cells: High 5 insect cells (baculovirus, pFast-BAC)
T1 sequence (Q05469 1-1076): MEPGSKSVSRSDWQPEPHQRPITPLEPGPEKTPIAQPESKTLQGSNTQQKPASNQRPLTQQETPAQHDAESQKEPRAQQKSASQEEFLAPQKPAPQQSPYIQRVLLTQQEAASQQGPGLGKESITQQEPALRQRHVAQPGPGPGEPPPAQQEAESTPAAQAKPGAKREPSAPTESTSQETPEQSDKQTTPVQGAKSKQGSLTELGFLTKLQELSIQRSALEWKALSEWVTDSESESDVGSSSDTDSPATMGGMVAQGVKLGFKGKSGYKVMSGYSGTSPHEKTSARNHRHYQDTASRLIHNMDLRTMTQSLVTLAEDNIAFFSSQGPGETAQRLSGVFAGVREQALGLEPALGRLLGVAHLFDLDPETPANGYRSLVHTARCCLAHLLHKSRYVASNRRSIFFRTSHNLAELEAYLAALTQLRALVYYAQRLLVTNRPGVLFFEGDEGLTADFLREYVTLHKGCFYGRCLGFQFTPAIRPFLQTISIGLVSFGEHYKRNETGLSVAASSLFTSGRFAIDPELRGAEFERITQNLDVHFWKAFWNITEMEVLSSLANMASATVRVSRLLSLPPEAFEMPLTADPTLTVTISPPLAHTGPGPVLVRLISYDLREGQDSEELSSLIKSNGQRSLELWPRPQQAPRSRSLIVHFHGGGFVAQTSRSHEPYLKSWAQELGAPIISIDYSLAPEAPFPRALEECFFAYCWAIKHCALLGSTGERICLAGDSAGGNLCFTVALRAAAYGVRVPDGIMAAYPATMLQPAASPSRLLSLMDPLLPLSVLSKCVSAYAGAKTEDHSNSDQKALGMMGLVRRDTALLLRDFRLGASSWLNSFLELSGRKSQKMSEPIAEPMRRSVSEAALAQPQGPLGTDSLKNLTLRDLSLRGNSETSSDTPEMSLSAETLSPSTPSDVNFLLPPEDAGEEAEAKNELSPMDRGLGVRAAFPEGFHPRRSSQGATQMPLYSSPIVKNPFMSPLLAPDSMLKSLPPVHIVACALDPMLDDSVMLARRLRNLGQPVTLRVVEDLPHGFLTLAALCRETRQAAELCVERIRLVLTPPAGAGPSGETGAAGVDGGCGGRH
In short: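 Colorimetric thioester hydrolysis: compounds in DMSO series mixed with DMPT (1.5 mM) in MOPS pH 7.2 with BSA, then baculovirus-expressed His6-tagged full-length human HSL added, 37° C, 20 min. DTNB plus detergents added, 15 min room temperature, absorbance at 405 nm.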

| IC50 [µM] | Structure (SMILES) |
| --- | --- |
| 0.13 | O=C1N(c2ccc(OC(F)(F)F)cc2)CCC12CCN(S(=O)(=O)C1CC1)CC2 [Example 96, 8-Cyclopropanesulfonyl-2-(4-trifluoromethoxy-phenyl)-2,8-diaza-spiro[4.5]decan-1-one] |
| 0.11 | Cc1noc(C)c1S(=O)(=O)N1CCC2(CCN(c3ccc(OC(C)C(F)(F)F)cc3)C2=O)CC1 (stereo not shown) [Example 97, 8-(3,5-Dimethyl-isoxazole-4-sulfonyl)-2-[4-(2,2,2-trifluoro-1-methyl-ethoxy)-phenyl]-2,8-diaza-spiro[4.5]decan-1-one] |
| 0.17 | CC(Oc1ccc(N2CCC3(CCN(S(=O)(=O)C4CC4)CC3)C2=O)cc1)C(F)(F)F (stereo not shown) [Example 98, 8-Cyclopropanesulfonyl-2-[4-(2,2,2-trifluoro-1-methyl-ethoxy)-phenyl]-2,8-diaza-spiro[4.5]decan-1-one] |
| 0.03 | CC(Oc1ccc(N2CCC3(CCN(S(=O)(=O)c4ccccc4OC(F)(F)F)CC3)C2=O)cc1)C(F)(F)F (stereo not shown) [Example 99, 8-(2-Trifluoromethoxy-benzenesulfonyl)-2-[4-(2,2,2-trifluoro-1-methyl-ethoxy)-phenyl]-2,8-diaza-spiro[4.5]decan-1-one] |
| 0.04 | CC(Oc1ccc(N2CCC3(CCN(S(=O)(=O)c4ccccc4C(F)(F)F)CC3)C2=O)cc1)C(F)(F)F (stereo not shown) [Example 100, 8-(2-Trifluoromethyl-benzenesulfonyl)-2-[4-(2,2,2-trifluoro-1-methyl-ethoxy)-phenyl]-2,8-diaza-spiro[4.5]decan-1-one] |
| 0.04 | CC(Oc1ccc(N2CCC3(CCN(S(=O)(=O)c4ccccc4C(F)(F)F)CC3)C2=O)cc1)C(F)(F)F (stereo not shown) [Example 101] |
| 0.36 | CC(C)CS(=O)(=O)N1CCC2(CCN(c3ccc(OCCC(F)(F)F)cc3)C2=O)CC1 [Example 102, 8-(2-Methyl-propane-1-sulfonyl)-2-[4-(3,3,3-trifluoro-propoxy)-phenyl]-2,8-diaza-spiro[4.5]decan-1-one] |
| 0.05 | O=C1N(c2ccc(OCCC(F)(F)F)cc2)CCC12CCN(S(=O)(=O)c1ccccc1OC(F)(F)F)CC2 [Example 103, 8-(2-Trifluoromethoxy-benzenesulfonyl)-2-[4-(3,3,3-trifluoro-propoxy)-phenyl]-2,8-diaza-spiro[4.5]decan-1-one] |
| 0.04 | O=C1N(c2ccc(I)cc2)CCC12CCN(S(=O)(=O)c1ccccc1OC(F)(F)F)CC2 [Example 104, 2-(4-Iodo-phenyl)-8-(2-trifluoromethoxy-benzenesulfonyl)-2,8-diaza-spiro[4.5]decan-1-one] |
| 0.02 | COCCc1ccc(N2CCC3(CCN(S(=O)(=O)c4ccccc4OC(F)(F)F)CC3)C2=O)cc1 [Example 105, 2-[4-(2-Methoxy-ethyl)-phenyl]-8-(2-trifluoromethoxy-benzenesulfonyl)-2,8-diaza-spiro[4.5]decan-1-one] |
| 0.04 | COCCOc1ccc(N2CCC3(CCN(S(=O)(=O)c4ccccc4OC(F)(F)F)CC3)C2=O)cc1 [Example 106, 2-[4-(2-Methoxy-ethoxy)-phenyl]-8-(2-trifluoromethoxy-benzenesulfonyl)-2,8-diaza-spiro[4.5]decan-1-one] |
| 0.74 | COCCCOc1ccc(N2CCC3(CCN(S(=O)(=O)CC(C)C)CC3)C2=O)cc1 [Example 107, 2-[4-(3-Methoxy-propoxy)-phenyl]-8-(2-methyl-propane-1-sulfonyl)-2,8-diaza-spiro[4.5]decan-1-one] |
| 0.1 | COCC(C)(C)c1ccc(N2CCC3(CCN(S(=O)(=O)CC(C)C)CC3)C2=O)cc1 [Example 108, 2-[4-(2-Methoxy-1,1-dimethyl-ethyl)-phenyl]-8-(2-methyl-propane-1-sulfonyl)-2,8-diaza-spiro[4.5]decan-1-one] |
| 0.04 | COCCCOc1ccc(N2CCC3(CCN(S(=O)(=O)c4ccccc4OC(F)(F)F)CC3)C2=O)cc1 [Example 109, 2-[4-(3-Methoxy-propoxy)-phenyl]-8-(2-trifluoromethoxy-benzenesulfonyl)-2,8-diaza-spiro[4.5]decan-1-one] |
| 0.03 | COCC(C)(C)c1ccc(N2CCC3(CCN(S(=O)(=O)c4ccccc4OC(F)(F)F)CC3)C2=O)cc1 [Example 110, 2-[4-(2-Methoxy-1,1-dimethyl-ethyl)-phenyl]-8-(2-trifluoromethoxy-benzenesulfonyl)-2,8-diaza-spiro[4.5]decan-1-one] |
| 0.11 | Cc1noc(C)c1S(=O)(=O)N1CCC2(CCN(c3ccc(OC(C)C)cc3)C2=O)CC1 [Example 111, 8-(3,5-Dimethyl-isoxazole-4-sulfonyl)-2-(4-isopropoxy-phenyl)-2,8-diaza-spiro[4.5]decan-1-one] |
| 0.27 | COCC(C)(C)c1ccc(N2CCC3(CCN(S(=O)(=O)c4c(C)noc4C)CC3)C2=O)cc1 [Example 112, 8-(3,5-Dimethyl-isoxazole-4-sulfonyl)-2-[4-(2-methoxy-1,1-dimethyl-ethyl)-phenyl]-2,8-diaza-spiro[4.5]decan-1-one] |
| 0.14 | CC(Oc1ccc(N2CCC3(CCN(C(=O)C4(C)CC4(Cl)Cl)CC3)C2=O)cc1)C(F)(F)F (stereo not shown) [Example 113, 8-(2,2-Dichloro-1-methyl-cyclopropanecarbonyl)-2-[4-(2,2,2-trifluoro-1-methyl-ethoxy)-phenyl]-2,8-diaza-spiro[4.5]decan-1-one] |
| 0.03 | O=C1N(c2ccc(OCC(F)(F)F)cc2)CCC12CCN(S(=O)(=O)c1ccccc1Cl)CC2 [Example 115, 8-(2-Chloro-benzenesulfonyl)-2-[4-(2,2,2-trifluoro-ethoxy)-phenyl]-2,8-diaza-spiro[4.5]decan-1-one] |
| 0.11 | O=C1N(c2ccc(OCCC(F)(F)F)nc2)CCC12CCN(S(=O)(=O)c1ccccc1Cl)CC2 [Example 116, 8-(2-Chloro-benzenesulfonyl)-2-[6-(3,3,3-trifluoro-propoxy)-pyridin-3-yl]-2,8-diaza-spiro[4.5]decan-1-one] |
| 0.06 | O=C1N(c2ccc(OCC(F)(F)F)nc2)CCC12CCN(S(=O)(=O)c1ccccc1)CC2 [Example 117, 8-Benzenesulfonyl-2-[6-(2,2,2-trifluoro-ethoxy)-pyridin-3-yl]-2,8-diaza-spiro[4.5]decan-1-one] |
| 0.47 | O=C1N(c2cnc(OCC(F)(F)F)nc2)CCC12CCN(S(=O)(=O)c1ccccc1)CC2 [Example 118, 8-Benzenesulfonyl-2-[2-(2,2,2-trifluoro-ethoxy)-pyrimidin-5-yl]-2,8-diaza-spiro[4.5]decan-1-one] |
| 0.05 | O=C1N(c2ccc(OCC(F)(F)F)nc2)CCC12CCN(S(=O)(=O)c1ccccc1Cl)CC2 [Example 119, 8-(2-Chloro-benzenesulfonyl)-2-[6-(2,2,2-trifluoro-ethoxy)-pyridin-3-yl]-2,8-diaza-spiro[4.5]decan-1-one] |
| 0.6 | CC(C)(C)CC(=O)N1CCC2(CC1)CCN(c1ccc(OCC(F)(F)F)cc1)C2=O [Example 120, 8-(3,3-Dimethyl-butyryl)-2-[4-(2,2,2-trifluoro-ethoxy)-phenyl]-2,8-diaza-spiro[4.5]decan-1-one] |
| 0.2 | CC1(C(=O)N2CCC3(CC2)CCN(c2ccc(OCC(F)(F)F)cc2)C3=O)CC1(Cl)Cl (stereo not shown) [Example 121, 8-(2,2-Dichloro-1-methyl-cyclopropanecarbonyl)-2-[4-(2,2,2-trifluoro-ethoxy)-phenyl]-2,8-diaza-spiro[4.5]decan-1-one] |
| 0.54 | CC(C)(C)CC(=O)N1CCC2(CC1)CCN(c1ccc(OCC(F)(F)F)nc1)C2=O [Example 122, 8-(3,3-Dimethyl-butyryl)-2-[6-(2,2,2-trifluoro-ethoxy)-pyridin-3-yl]-2,8-diaza-spiro[4.5]decan-1-one] |
| 0.25 | CC(Oc1ccc(N2CCC3(CCN(C(=O)CC(C)(C)C)CC3)C2=O)cc1)C(F)(F)F (stereo not shown) [Example 123, 8-(3,3-Dimethyl-butyryl)-2-[4-(2,2,2-trifluoro-1-methyl-ethoxy)-phenyl]-2,8-diaza-spiro[4.5]decan-1-one] |
| 0.06 | CCn1cc2cc(N3CCC4(CCN(S(=O)(=O)c5ccccc5Cl)CC4)C3=O)ccc2n1 [Example 124, 8-(2-Chloro-benzenesulfonyl)-2-(2-ethyl-2H-indazol-5-yl)-2,8-diaza-spiro[4.5]decan-1-one] |
